# Where a SMILES comes first, the peptide text is derived from it. The star is where a group is joined. AMC = Cc1cc(=O)oc2cc(N*)ccc12; Boc = CC(C)(C)OC(=O)*
# How the values were obtained:
# [1] = molecular target: T1, factor Xa (Homo sapiens, UniProt P00742); experiment: Enzyme inhibition assay with purified factor Xa (Ki, dose-response); format: biochemical; conditions: for factor Xa activity, Mean (Fig. 2d): normalized, 0 nM = 100
# T1 construct: purchased Bio-Techne GmbH (Wiesbaden, Germany)
# Excerpt: (§1) Recombinant human TMPRSS2 was purchased from Creative BioMart (New York, USA) or LSBio (Seattle, USA), factor Xa was obtained from Bio-Techne GmbH (Wiesbaden, Germany). Recombinant human thrombin and matriptase protein were purchased from R&D Systems (Minneapolis, MN, USA).
# [2] = molecular target: T2, recombinant human thrombin (Homo sapiens, UniProt P00734); experiment: Enzyme inhibition assay with purified thrombin (Ki, dose-response); format: biochemical; conditions: for thrombin activity, Mean (Fig. 2c): normalized
# T2 construct: purchased R&D Systems (Minneapolis, MN, USA)
# Excerpt: as §1
# [3] = iv; cited from earlier work
# [4] = molecular target: T3, recombinant human matriptase (Homo sapiens, UniProt Q9Y5Y6); experiment: Enzyme inhibition assay with purified matriptase (Ki, dose-response); format: biochemical; conditions: for matriptase activity, Mean (Fig. 2b): normalized, 0 nM = 100
# T3 construct: purchased R&D Systems (Minneapolis, MN, USA)
# T3 sequence (Q9Y5Y6 1-855): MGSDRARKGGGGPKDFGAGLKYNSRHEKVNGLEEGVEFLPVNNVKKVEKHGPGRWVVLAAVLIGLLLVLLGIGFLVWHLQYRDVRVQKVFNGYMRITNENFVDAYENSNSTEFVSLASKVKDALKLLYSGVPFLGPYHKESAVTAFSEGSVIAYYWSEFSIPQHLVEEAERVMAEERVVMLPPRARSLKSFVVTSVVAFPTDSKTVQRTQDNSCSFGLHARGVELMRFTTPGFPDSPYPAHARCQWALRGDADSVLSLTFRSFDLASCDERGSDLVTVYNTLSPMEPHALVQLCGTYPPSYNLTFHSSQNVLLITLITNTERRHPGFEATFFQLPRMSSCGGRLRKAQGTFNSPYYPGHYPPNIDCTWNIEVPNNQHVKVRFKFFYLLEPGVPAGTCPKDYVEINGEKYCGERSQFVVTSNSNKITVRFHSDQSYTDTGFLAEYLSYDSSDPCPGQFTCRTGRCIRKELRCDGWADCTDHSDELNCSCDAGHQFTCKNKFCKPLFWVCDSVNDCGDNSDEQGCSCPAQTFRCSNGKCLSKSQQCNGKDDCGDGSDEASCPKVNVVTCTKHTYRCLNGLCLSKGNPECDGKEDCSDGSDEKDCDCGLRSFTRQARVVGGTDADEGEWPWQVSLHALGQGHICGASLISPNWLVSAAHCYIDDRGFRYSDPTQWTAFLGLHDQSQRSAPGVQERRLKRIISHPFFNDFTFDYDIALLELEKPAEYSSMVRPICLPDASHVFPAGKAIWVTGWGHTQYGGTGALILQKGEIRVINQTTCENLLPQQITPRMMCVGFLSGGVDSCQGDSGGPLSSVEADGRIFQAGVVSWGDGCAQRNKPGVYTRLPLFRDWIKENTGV
# [5] = molecular target: TMPRSS2 (Homo sapiens, UniProt O15393); experiment: Michaelis-Menten constant of the fluorogenic reference substrate; conditions: read-out: Michaelis-Menten constant KM for TMPRSS2
# Protocol: The measurements were performed on a Tecan infinite® M1000 and the fluorescence intensity was measured by exciting the AMC fluorophore at 380 nm wavelength and recording emission at 460 nm wavelength. […] Fluorescence intensities and absorption were measured every 2 min for 2 h or as endpoint after 2 h.
# Supplementary Figure 2 Michaelis-Menten constant (KM) of the fluorogenic reference substrate
# The data points were plotted using the Michaelis -Menten
# equation in GraphPad Prism prism version 8.4.2 (San Diego, California). Shown are the means ± SD of
# n=1 experiment performed in triplicates.
# [6] = 30 min preincubation, substrate Bz-Ile-Glu-Gly-Arg-pNA
# [7] = 30 min preincubation, substrate D-Phe-Homopro-Arg-pNA
# [8] = 30 min preincubation, substrate Boc-Gln-Ala-Arg-AMC
# T1 sequence (P00742 235-488 limits assumed): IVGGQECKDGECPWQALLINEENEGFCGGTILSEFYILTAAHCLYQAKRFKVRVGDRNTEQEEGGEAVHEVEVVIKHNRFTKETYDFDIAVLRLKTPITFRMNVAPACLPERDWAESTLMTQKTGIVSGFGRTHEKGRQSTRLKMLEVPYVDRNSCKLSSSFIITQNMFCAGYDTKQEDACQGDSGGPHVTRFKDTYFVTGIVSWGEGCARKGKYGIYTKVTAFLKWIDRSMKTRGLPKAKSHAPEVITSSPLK
# T1 sequence (P00742 41-179 partner limits assumed): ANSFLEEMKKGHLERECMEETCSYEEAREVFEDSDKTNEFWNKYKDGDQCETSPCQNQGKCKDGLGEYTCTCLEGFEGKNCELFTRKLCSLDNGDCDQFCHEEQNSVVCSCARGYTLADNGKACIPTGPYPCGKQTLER
# Sequence of TMPRSS2 (O15393 whole entry): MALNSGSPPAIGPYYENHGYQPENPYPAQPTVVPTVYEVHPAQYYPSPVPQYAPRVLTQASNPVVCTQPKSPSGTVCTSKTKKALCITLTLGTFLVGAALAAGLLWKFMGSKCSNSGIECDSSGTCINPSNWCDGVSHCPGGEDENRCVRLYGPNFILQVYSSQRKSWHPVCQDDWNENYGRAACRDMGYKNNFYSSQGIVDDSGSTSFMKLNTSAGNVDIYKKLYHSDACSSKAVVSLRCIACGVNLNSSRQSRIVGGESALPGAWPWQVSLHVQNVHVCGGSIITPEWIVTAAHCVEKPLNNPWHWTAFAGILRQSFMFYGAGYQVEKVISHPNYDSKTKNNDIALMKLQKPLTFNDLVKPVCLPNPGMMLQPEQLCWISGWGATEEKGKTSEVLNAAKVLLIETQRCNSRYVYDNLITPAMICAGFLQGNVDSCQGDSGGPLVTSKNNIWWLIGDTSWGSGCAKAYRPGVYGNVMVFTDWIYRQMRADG
smiles,measurement,setting,value
"NC(N)=Nc1ccc(C(=O)Oc2ccc(CC(=O)O)cc2)cc1 [FOY-251, reference compound]","factor Xa activity, Mean (Fig. 2d)",[1]; 0.02 nM,91.2533
same,"factor Xa activity, Mean (Fig. 2d)",[1]; 0.04 nM,91.3991
same,"factor Xa activity, Mean (Fig. 2d)",[1]; 0.2 nM,72.8853
same,"factor Xa activity, Mean (Fig. 2d)",[1]; 2 nM,86.5885
same,"factor Xa activity, Mean (Fig. 2d)",[1]; 20 nM,82.2151
same,"factor Xa activity, Mean (Fig. 2d)",[1]; 200 nM,72.5938
same,"factor Xa activity, Mean (Fig. 2d)",[1]; 10000 nM,34.986
same,"factor Xa activity, Mean (Fig. 2d)",[1]; 100000 nM,16.3265
same,Ki,[1]; [6],697 nM
same,"thrombin activity, Mean (Fig. 2c)",[2]; 0.01 nM,101.844
same,"thrombin activity, Mean (Fig. 2c)","[2]; 0.02 nM, 0 nM = 100",101.898
same,"thrombin activity, Mean (Fig. 2c)","[2]; 0.04 nM, 0 nM = 100",101.898
same,"thrombin activity, Mean (Fig. 2c)","[2]; 0.2 nM, 0 nM = 100",101.356
same,"thrombin activity, Mean (Fig. 2c)","[2]; 2 nM, 0 nM = 100",99.0781
same,"thrombin activity, Mean (Fig. 2c)","[2]; 20 nM, 0 nM = 100",102.277
same,"thrombin activity, Mean (Fig. 2c)","[2]; 10000 nM, 0 nM = 100",93.0588
same,"thrombin activity, Mean (Fig. 2c)","[2]; 100000 nM, 0 nM = 100",44.1974
same,Ki,[2]; [7],> 50000 nM
same,in vivo half-life,[3],1 to 1.67 h
same,"matriptase activity, Mean (Fig. 2b)",[4]; 0.05 nM,110.25
same,"matriptase activity, Mean (Fig. 2b)",[4]; 0.5 nM,111.62
same,"matriptase activity, Mean (Fig. 2b)",[4]; 5 nM,106.849
same,"matriptase activity, Mean (Fig. 2b)",[4]; 50 nM,97.213
same,"matriptase activity, Mean (Fig. 2b)",[4]; 500 nM,35.5692
same,"matriptase activity, Mean (Fig. 2b)",[4]; 5000 nM,1.606
same,"matriptase activity, Mean (Fig. 2b)",[4]; 50000 nM,0.2362
same,"matriptase activity, Mean (Fig. 2b)",[4]; 500000 nM,0.1417
same,Ki,[4]; [8],173 nM
Cc1cc(=O)oc2cc(NC(=O)[C@H](CCCN=C(N)N)NC(=O)[C@H](C)NC(=O)[C@H](CCC(N)=O)NC(=O)OC(C)(C)C)ccc12 [Boc-Gln-Ala-Arg-AMC] (Boc-Gln-Ala-Arg-{AMC}),Km,[5],77 µM
CC(=O)N[C@H](CCCNC(=N)N)C(=O)N[C@@H](CC1CCC1)C(=O)N[C@H](CO)CCCNC(=N)N [Cpd. 7 alcohol],Ki Factor Xa,[1]; [6],n.i.
same,"factor Xa activity, Mean (control = 100), S6c",[1]; inhibitor 0.2 nM,93.6065
same,"factor Xa activity, Mean (control = 100), S6c",[1]; inhibitor 2 nM,101.454
same,"factor Xa activity, Mean (control = 100), S6c",[1]; inhibitor 20 nM,95.9299
same,"factor Xa activity, Mean (control = 100), S6c",[1]; inhibitor 200 nM,88.9574
same,"factor Xa activity, Mean (control = 100), S6c",[1]; inhibitor 10000 nM,78.1999
same,"factor Xa activity, Mean (control = 100), S6c",[1]; inhibitor 100000 nM,120.06
same,Ki Thrombin,[2]; [7],n.i.
same,"thrombin activity, Mean (control = 100), S6b",[2]; inhibitor 0.2 nM,90.7019
same,"thrombin activity, Mean (control = 100), S6b",[2]; inhibitor 2 nM,92.977
same,"thrombin activity, Mean (control = 100), S6b",[2]; inhibitor 20 nM,91.1965
same,"thrombin activity, Mean (control = 100), S6b",[2]; inhibitor 200 nM,95.4993
same,"thrombin activity, Mean (control = 100), S6b",[2]; inhibitor 10000 nM,93.8672
same,"thrombin activity, Mean (control = 100), S6b",[2]; inhibitor 100000 nM,91.2954
same,Ki Matriptase,[4]; [8],n.i.
same,"matriptase activity, Mean (control = 100), S6a",[4]; inhibitor 10 nM,90.4903
same,"matriptase activity, Mean (control = 100), S6a",[4]; inhibitor 100 nM,101.634
same,"matriptase activity, Mean (control = 100), S6a",[4]; inhibitor 1000 nM,101.337
same,"matriptase activity, Mean (control = 100), S6a",[4]; inhibitor 50000 nM,91.3819
same,"matriptase activity, Mean (control = 100), S6a",[4]; inhibitor 500000 nM,44.4279
CC(=O)NC(CCCNC(=N)N)C(=O)NC(CC1CCC1)C(=O)NC(CCCNC(=N)N)C(=O)c1nccs1 (stereo not shown) [Cpd. 7 ketothiazole],Ki,[1]; [6],98.7 nM
same,"factor Xa activity, Mean (control = 100), S6c",[1]; inhibitor 0.02 nM,95.3485
same,"factor Xa activity, Mean (control = 100), S6c",[1]; inhibitor 0.04 nM,90.4387
same,"factor Xa activity, Mean (control = 100), S6c",[1]; inhibitor 0.2 nM,87.8566
same,"factor Xa activity, Mean (control = 100), S6c",[1]; inhibitor 2 nM,87.8545
same,"factor Xa activity, Mean (control = 100), S6c",[1]; inhibitor 20 nM,82.4299
same,"factor Xa activity, Mean (control = 100), S6c",[1]; inhibitor 200 nM,52.1976
same,"factor Xa activity, Mean (control = 100), S6c",[1]; inhibitor 10000 nM,2.584
same,"factor Xa activity, Mean (control = 100), S6c",[1]; inhibitor 100000 nM,3.101
same,Ki Thrombin,[2]; [7],n.i.
same,"thrombin activity, Mean (control = 100), S6b",[2]; inhibitor 0.02 nM,96.7111
same,"thrombin activity, Mean (control = 100), S6b",[2]; inhibitor 0.04 nM,101.49
same,"thrombin activity, Mean (control = 100), S6b",[2]; inhibitor 0.2 nM,101.233
same,"thrombin activity, Mean (control = 100), S6b",[2]; inhibitor 2 nM,107.554
same,"thrombin activity, Mean (control = 100), S6b",[2]; inhibitor 20 nM,101.388
same,"thrombin activity, Mean (control = 100), S6b",[2]; inhibitor 200 nM,101.233
same,"thrombin activity, Mean (control = 100), S6b",[2]; inhibitor 10000 nM,98.2014
same,"thrombin activity, Mean (control = 100), S6b",[2]; inhibitor 100000 nM,83.6589
same,Ki,[4]; [8],141 nM
same,"matriptase activity, Mean (control = 100), S6a",[4]; inhibitor 0.1 nM,103.606
same,"matriptase activity, Mean (control = 100), S6a",[4]; inhibitor 0.2 nM,101.185
same,"matriptase activity, Mean (control = 100), S6a",[4]; inhibitor 1 nM,109.016
same,"matriptase activity, Mean (control = 100), S6a",[4]; inhibitor 10 nM,101.829
same,"matriptase activity, Mean (control = 100), S6a",[4]; inhibitor 100 nM,75.1932
same,"matriptase activity, Mean (control = 100), S6a",[4]; inhibitor 1000 nM,21.355
same,"matriptase activity, Mean (control = 100), S6a",[4]; inhibitor 50000 nM,0.4637
same,"matriptase activity, Mean (control = 100), S6a",[4]; inhibitor 500000 nM,-0.1803

# From paper PMC9270327 (Communications Biology, 2022)
